Data as given in patent US20140287460A1, “PRODUCTION OF R[…] IN INSECT CELLS USING A B[…]” (GBIOTECH SARL, priority 2011, published 2014).

What was measured:
[1] = test system: bMON14272-pE2 infected SF21 cells; assay: Baculovirus virion suppression test, end point dilution assay (Example 2); assay type: cell-based
Text: FIG. 7: Example 2. A) Generation of composite baculovirus DNA containing expression cassettes X, Y, and Z as described in FIG. 6. Baculovirus DNA bMON14272 (left) contains expression cassette Z encoding native vp80 protein. The transfer vector pE2 (right) contains expression cassettes X and Y encoding the ecdysone activator protein and shRNA, respectively. In transfer vector pE2, direction of transcription 5′ to 3′ for expression cassettes X and Y is indicated by arrows. Promoter sequences pe38 for ecdysone activator and ie-2 minimal for shRNA are indicated as are the DNA binding sites for ecdysone activator protein. Fusion of the transfer vector pE2 and bMON14272 is carried out by Tn7 transposition (indicated by the dashed cross). B) Comparison of budded infectious virus production from inducible bMON14272-pE2 (left) and non-inducible bMON14272-pDual (right) in the presence and absence of inducer molecule RG-102240. Baculovirus infected SF21 cells are incubated for 72 hours in the presence, or absence of 0.5 μM RG-102240 (indicated by + or −, bottom). […] S.E.M of three measurements is indicated by dark bars on the top of the graphs.
Other algorithms may be analogously used. […] Expression cassette Y is under control of the ie2 minimal promoter (Protein Expression and Purification 42, 236-245).
Baculovirus virion suppression tests are carried out as follows. 10 milliliters of SF21 cells in suspension culture (Nature Methods 3, 1021-1032) at density 0.5×10^6 cells/ml are infected at multiplicity of infection (M.O.I) of 1.0 with either bMON14272-pE2 or bMON14272-pFastbac Dual initial transfection virus either in the presence, or absence of 0.5 μM RG-102240 (FIG. 7B). […]
(§1) Quantification of effectiveness of RG-102240-mediated suppression of generation of baculovirus virion through shRNA targeting of the essential virus capsid protein vp80 as described above is carried out by comparing the results of the end point dilution assay with and without RG-102240-mediated expression of shRNA. […]

[2] = test system: bMON14272-pFastbac Dual infected SF21 cells; assay: Baculovirus virion suppression test, end point dilution assay, negative control virus (Example 2); assay type: cell-based; details: addition of 0.5 μM RG-102240, SF21 cells, 72 hours, FIG. 7B right
Text: FIG. 7: Example 2. A) Generation of composite baculovirus DNA containing expression cassettes X, Y, and Z as described in FIG. 6. Baculovirus DNA bMON14272 (left) contains expression cassette Z encoding native vp80 protein. The transfer vector pE2 (right) contains expression cassettes X and Y encoding the ecdysone activator protein and shRNA, respectively. In transfer vector pE2, direction of transcription 5′ to 3′ for expression cassettes X and Y is indicated by arrows. Promoter sequences pe38 for ecdysone activator and ie-2 minimal for shRNA are indicated as are the DNA binding sites for ecdysone activator protein. Fusion of the transfer vector pE2 and bMON14272 is carried out by Tn7 transposition (indicated by the dashed cross). B) Comparison of budded infectious virus production from inducible bMON14272-pE2 (left) and non-inducible bMON14272-pDual (right) in the presence and absence of inducer molecule RG-102240. Baculovirus infected SF21 cells are incubated for 72 hours in the presence, or absence of 0.5 μM RG-102240 (indicated by + or −, bottom). […]
as §1

[3] = induced with 0.5 μM RG-102240, SF21 cells, 72 hours

Structure (SMILES): CCc1c(OC)cccc1C(=O)NN(C(=O)c1cc(C)cc(C)c1)C(C)(C)C [RG-102240]
- reduction of virus titers relative to prior art systems (bMON14272-pFastbac Dual) [1, 3]: more than three fold
- reduction of virus titers relative to uninduced bMON14272-pE2 [1, 3]: more than three fold
- levels of budded virus production (infectious virus titre) ([1]; presence vs absence of 0.5 μM RG-102240, SF21 cells, M.O.I 1.0, 72 hours, FIG. 7B left): significantly reduced
- effect on baculovirus virion production [2]: no statistically significant effect
